Measurements published in PubChem BioAssay AID1259407 (Chemical Carcinogenesis Research Information System (CCRIS), 2018).
The source made the active and inactive calls. The rule behind the calls is not given here.

System: CCRIS mutagenicity, Ames/micronucleus/aberration tests
Experiment: CCRIS mutagenicity studies

Measured: mutagenic call

CCN(N=O)c1ccccc1
inactive: Test System: AMES SALMONELLA TYPHIMURIUM, Strain/Indicator: TA1537, Metabolic Activation: HAMSTER, LIVER, S-9, AROCLOR 1254, Method: PREINCUBATION inactive; negative | Test System: AMES SALMONELLA TYPHIMURIUM, Strain/Indicator: TA1537, Metabolic Activation: HAMSTER, LIVER, S-9, AROCLOR 1254, Method: STANDARD PLATE inactive; negative | Test System: AMES SALMONELLA TYPHIMURIUM, Strain/Indicator: TA1537, Metabolic Activation: HAMSTER, LIVER, S-9, Method: PREINCUBATION inactive; negative | Test System: AMES SALMONELLA TYPHIMURIUM, Strain/Indicator: TA1537, Metabolic Activation: HAMSTER, LIVER, S-9, Method: STANDARD PLATE inactive; negative | Test System: AMES SALMONELLA TYPHIMURIUM, Strain/Indicator: TA1537, Metabolic Activation: MOUSE, LIVER, S-9, AROCLOR 1254, Method: PREINCUBATION inactive; negative | Test System: AMES SALMONELLA TYPHIMURIUM, Strain/Indicator: TA1537, Metabolic Activation: MOUSE, LIVER, S-9, AROCLOR 1254, Method: STANDARD PLATE inactive; negative | Test System: AMES SALMONELLA TYPHIMURIUM, Strain/Indicator: TA1537, Metabolic Activation: MOUSE, LIVER, S-9, Method: PREINCUBATION inactive; negative | Test System: AMES SALMONELLA TYPHIMURIUM, Strain/Indicator: TA1537, Metabolic Activation: MOUSE, LIVER, S-9, Method: STANDARD PLATE inactive; negative | Test System: AMES SALMONELLA TYPHIMURIUM, Strain/Indicator: TA1537, Metabolic Activation: NONE, Method: PREINCUBATION inactive; negative | Test System: AMES SALMONELLA TYPHIMURIUM, Strain/Indicator: TA1537, Metabolic Activation: NONE, Method: STANDARD PLATE inactive; negative | Test System: AMES SALMONELLA TYPHIMURIUM, Strain/Indicator: TA1537, Metabolic Activation: RAT, LIVER, S-9, AROCLOR 1254, Method: PREINCUBATION inactive; negative | Test System: AMES SALMONELLA TYPHIMURIUM, Strain/Indicator: TA1537, Metabolic Activation: RAT, LIVER, S-9, AROCLOR 1254, Method: STANDARD PLATE inactive; negative | Test System: AMES SALMONELLA TYPHIMURIUM, Strain/Indicator: TA1537, Metabolic Activation: RAT, LIVER, S-9, Method: PREINCUBATION inactive; negative | Test System: AMES SALMONELLA TYPHIMURIUM, Strain/Indicator: TA1537, Metabolic Activation: RAT, LIVER, S-9, Method: STANDARD PLATE inactive; negative | Test System: AMES SALMONELLA TYPHIMURIUM, Strain/Indicator: TA1538, Metabolic Activation: HAMSTER, LIVER, S-9, AROCLOR 1254, Method: PREINCUBATION inactive; negative | Test System: AMES SALMONELLA TYPHIMURIUM, Strain/Indicator: TA1538, Metabolic Activation: HAMSTER, LIVER, S-9, AROCLOR 1254, Method: STANDARD PLATE inactive; negative | Test System: AMES SALMONELLA TYPHIMURIUM, Strain/Indicator: TA1538, Metabolic Activation: HAMSTER, LIVER, S-9, Method: PREINCUBATION inactive; negative | Test System: AMES SALMONELLA TYPHIMURIUM, Strain/Indicator: TA1538, Metabolic Activation: HAMSTER, LIVER, S-9, Method: STANDARD PLATE inactive; negative | Test System: AMES SALMONELLA TYPHIMURIUM, Strain/Indicator: TA1538, Metabolic Activation: MOUSE, LIVER, S-9, AROCLOR 1254, Method: PREINCUBATION inactive; negative | Test System: AMES SALMONELLA TYPHIMURIUM, Strain/Indicator: TA1538, Metabolic Activation: MOUSE, LIVER, S-9, AROCLOR 1254, Method: STANDARD PLATE inactive; negative | Test System: AMES SALMONELLA TYPHIMURIUM, Strain/Indicator: TA1538, Metabolic Activation: MOUSE, LIVER, S-9, Method: PREINCUBATION inactive; negative | Test System: AMES SALMONELLA TYPHIMURIUM, Strain/Indicator: TA1538, Metabolic Activation: MOUSE, LIVER, S-9, Method: STANDARD PLATE inactive; negative | Test System: AMES SALMONELLA TYPHIMURIUM, Strain/Indicator: TA1538, Metabolic Activation: NONE, Method: PREINCUBATION inactive; negative | Test System: AMES SALMONELLA TYPHIMURIUM, Strain/Indicator: TA1538, Metabolic Activation: NONE, Method: STANDARD PLATE inactive; negative | Test System: AMES SALMONELLA TYPHIMURIUM, Strain/Indicator: TA1538, Metabolic Activation: RAT, LIVER, S-9, AROCLOR 1254, Method: PREINCUBATION inactive; negative | Test System: AMES SALMONELLA TYPHIMURIUM, Strain/Indicator: TA1538, Metabolic Activation: RAT, LIVER, S-9, AROCLOR 1254, Method: STANDARD PLATE inactive; negative | Test System: AMES SALMONELLA TYPHIMURIUM, Strain/Indicator: TA1538, Metabolic Activation: RAT, LIVER, S-9, Method: PREINCUBATION inactive; negative | Test System: AMES SALMONELLA TYPHIMURIUM, Strain/Indicator: TA1538, Metabolic Activation: RAT, LIVER, S-9, Method: STANDARD PLATE inactive; negative | Test System: E. COLI, Strain/Indicator: WP2 UVRA, Metabolic Activation: HAMSTER, LIVER, S-9, AROCLOR 1254, Method: PREINCUBATION inactive; negative | Test System: E. COLI, Strain/Indicator: WP2 UVRA, Metabolic Activation: HAMSTER, LIVER, S-9, AROCLOR 1254, Method: STANDARD PLATE inactive; negative | Test System: E. COLI, Strain/Indicator: WP2 UVRA, Metabolic Activation: HAMSTER, LIVER, S-9, Method: PREINCUBATION inactive; negative | Test System: E. COLI, Strain/Indicator: WP2 UVRA, Metabolic Activation: HAMSTER, LIVER, S-9, Method: STANDARD PLATE inactive; negative | Test System: E. COLI, Strain/Indicator: WP2 UVRA, Metabolic Activation: MOUSE, LIVER, S-9, AROCLOR 1254, Method: PREINCUBATION inactive; negative | Test System: E. COLI, Strain/Indicator: WP2 UVRA, Metabolic Activation: MOUSE, LIVER, S-9, AROCLOR 1254, Method: STANDARD PLATE inactive; negative | Test System: E. COLI, Strain/Indicator: WP2 UVRA, Metabolic Activation: MOUSE, LIVER, S-9, Method: PREINCUBATION inactive; negative | Test System: E. COLI, Strain/Indicator: WP2 UVRA, Metabolic Activation: MOUSE, LIVER, S-9, Method: STANDARD PLATE inactive; negative | Test System: E. COLI, Strain/Indicator: WP2 UVRA, Metabolic Activation: NONE, Method: PREINCUBATION inactive; negative | Test System: E. COLI, Strain/Indicator: WP2 UVRA, Metabolic Activation: NONE, Method: STANDARD PLATE inactive; negative | Test System: E. COLI, Strain/Indicator: WP2 UVRA, Metabolic Activation: RAT, LIVER, S-9, AROCLOR 1254, Method: PREINCUBATION inactive; negative | Test System: E. COLI, Strain/Indicator: WP2 UVRA, Metabolic Activation: RAT, LIVER, S-9, AROCLOR 1254, Method: STANDARD PLATE inactive; negative | Test System: E. COLI, Strain/Indicator: WP2 UVRA, Metabolic Activation: RAT, LIVER, S-9, Method: PREINCUBATION inactive; negative | Test System: E. COLI, Strain/Indicator: WP2 UVRA, Metabolic Activation: RAT, LIVER, S-9, Method: STANDARD PLATE inactive; negative
